Data on four compounds can be found in ChEMBL document CHEMBL3045557, “A new benzil derivative from Derris scandens: Structure-insecticidal activity study” (2010).

Usually mortality stands for the share of the test organisms that died.

For assay [1], the system named is Achaea janata. Nature of the assay: Toxicity against Achaea janata after 24 hr by leaf disk method. The format is functional.
For assay [2], the system named is Achaea janata. Nature of the assay: Antifeedant activity against Achaea janata at 1 ug/cm2 by conventional no-choice disk method. It is filed as functional, organism-based.
Assay [3] relates to Achaea janata. Nature of the assay: Antifeedant activity against Achaea janata at 10 ug/cm2 by conventional no-choice disk method. The format is functional.
Assay [4] concerns Achaea janata. Put plainly: Insecticidal activity against Achaea janata assessed as adult emergence at 4 ug/larva administered through topical application (reference value: 98.8 +/- 0.5 %). The format is functional.
Assay [5] deals with Achaea janata. Nature of the assay: Insecticidal activity against Achaea janata assessed as pupal mortality at 4 ug/larva administered through topical application. It is filed as functional.
For assay [6], the system named is Achaea janata. Nature of the assay: Insecticidal activity against Achaea janata assessed as larval duration at 2 ug/larva administered through topical application (reference value: 7.3 +/- 0.1 days). The format is functional.
Assay [7] concerns Achaea janata. Nature of the assay: Insecticidal activity against Achaea janata assessed as larval duration at 4 ug/larva administered through topical application (reference value: 7.3 +/- 0.1 days). It is filed as functional.
The subject of assay [8] is Achaea janata. Nature of the assay: Insecticidal activity against Achaea janata assessed as pupal weight at 2 ug/larva administered through topical application (reference value: 696.4 +/- 2.6 mg). It is filed as functional.
Assay [9] concerns Achaea janata. Put plainly: Insecticidal activity against Achaea janata assessed as adult emergence at 2 ug/larva administered through topical application (reference value: 98.8 +/- 0.5 %). It is filed as functional.
In assay [10] the test system is Achaea janata. Put plainly: Toxicity against Achaea janata at 10 ug/cm2 after 24 hr by leaf disk method. It is filed as functional.
Assay [11] relates to Achaea janata. Nature of the assay: Insecticidal activity against Achaea janata assessed as adult deformity at 4 ug/larva administered through topical application. It is filed as functional.
Assay [12] deals with Achaea janata. Put plainly: Insecticidal activity against Achaea janata assessed as larval mortality at 2 ug/larva administered through topical application. It is filed as functional.
In assay [13] the test system is Achaea janata. Nature of the assay: Insecticidal activity against Achaea janata assessed as pupal duration at 2 ug/larva administered through topical application (reference value: 10.3 +/- 0.1 days). It is filed as functional.
Assay [14] deals with Achaea janata. Nature of the assay: Insecticidal activity against Achaea janata assessed as larval mortality at 4 ug/larva administered through topical application. It is filed as functional.
Assay [15] has as its system Achaea janata. Nature of the assay: Insecticidal activity against Achaea janata assessed as pupal duration at 4 ug/larva administered through topical application (reference value: 10.3 +/- 0.1 days). The format is functional.
The test system of assay [16] is Achaea janata. Put plainly: Insecticidal activity against Achaea janata assessed as adult deformity at 2 ug/larva administered through topical application. The format is functional.
The test system of assay [17] is Achaea janata. Nature of the assay: Insecticidal activity against Achaea janata assessed as pupal mortality at 2 ug/larva administered through topical application. The format is functional.
Assay [18] has as its system Achaea janata. Put plainly: Antifeedant activity against Achaea janata by conventional no-choice disk method. It is filed as functional.
Assay [19] relates to Achaea janata. Nature of the assay: Antifeedant activity against Achaea janata at 2 ug/cm2 by conventional no-choice disk method. It is filed as functional, organism-based.
Assay [20] concerns Achaea janata. Put plainly: Insecticidal activity against Achaea janata assessed as pupal weight at 4 ug/larva administered through topical application (reference value: 696.4 +/- 2.6 mg). The format is functional.

The structures appear in SMILES notation. Calls of active or inactive are those of the source. The rule behind the calls is not given here.

In assay [1], `COc1c(CC=C(C)C)c2c(c(O)c1C(=O)C(=O)c1ccc(O)cc1)C=CC(C)(C)O2` registered an LD50 of 3.56 microg/cm2. The AFI entry in assay [2] and in assay [19] was “inactive” each time. Moreover, the AFI in [3] was 96.8%. Also, the Activity worked out at 6.7% in assay [4]; 524.4 mg in [8]; 34.5% in [9]; 100% in assay [10]; 19% in [11]; 16.2% in assay [16]. The Activity in assay [20] is 515.4 mg. Further, the mortality was 31.6% in assay [5], 15.1% in assay [12], 39.3% in assay [14] and 20% in assay [17]. The Time in assay [6] was 7.8 days; in [7], 8.5 days; in assay [13] it was 13 days; in assay [15], 13.5 days. The compound further displayed an ED50 in assay [18] of 3.31 microg/cm2.

Take `COc1c2c(c(CC=C(C)C)c(O)c1C(=O)C(=O)c1ccc(O)cc1)OC(C)(C)C=C2` [Derrisdione A]: the LD50 result in assay [1] was “inactive”. For the same compound, the AFI entry in [2] and in assay [19] was “inactive” in each case. The compound also returned an AFI in assay [3] of 58.6%. Further, the Activity in [4] was determined as 29.8%; in assay [8] it was 592.6 mg; in assay [9], 35.4%; in [10], 18.2%; in [11], 21.1%; in assay [16], 19.5%. The Activity in assay [20] turned out to be 597.8 mg. Moreover, the mortality in assay [5] is on record as 36.2%; in [12] it was 0%; in assay [14] it was 0%; in assay [17], 29.8%. In addition, the Time in [6] is 9.3 days; in assay [7] it was 10.5 days; in [13], 10.9 days; in assay [15], 12.5 days. For the same compound, the ED50 in assay [18] is given as 7.18 microg/cm2.

Compound `O=c1c(-c2ccc(O)cc2)coc2cc(O)cc(O)c12` [GENISTEIN] displayed an LD50 in assay [1] of 3.29 microg/cm2. Also, the AFI result in assay [2] and in assay [19] was “inactive” throughout. The same compound gave an AFI in [3] of 97.7%. Further, the Activity in assay [4] came out at 7.7%; in assay [8], 518 mg; in [9], 27%; in [10] it was 100%; in assay [11] it was 11.8%; in [16] it was 10.6%. Moreover, the Activity in [20] was 532 mg. In addition, the mortality in [5] turned out to be 22.5%; in assay [12] it was 31%; in [14], 48.6%; in assay [17], 17.2%. The Time in assay [6] turned out to be 7.8 days; in assay [7], 10.3 days; in assay [13], 13.1 days. Further, in assay [18], the ED50 worked out at 3.22 microg/cm2.

As for `CC(C)=CCc1c2c(c(O)c3c(=O)cc(-c4ccc(O)cc4)oc13)C=CC(C)(C)O2` [LAXIFOLIN], the LD50 entry in assay [1] was “inactive”. The AFI entry in assay [2] and in [19] was “inactive” throughout. In assay [3], this compound registered an AFI of 2.6%. Also, the Activity in assay [4] was 24.9%; in assay [8] it was 567.2 mg; in assay [9], 59.6%; in assay [10], 0%; in assay [11] it was 2.3%; in [16] it was 0%. Further, the Activity in assay [20] came to 552 mg. Further, the mortality in assay [5] was 27.4%; in [12], 20.6%; in [14] it was 25.2%; in assay [17], 12%. The Time in assay [6] was determined as 8.5 days; in [7], 11.1 days; in assay [13], 10.7 days; in assay [15] it was 14.1 days. The ED50 result in assay [18] was “inactive”.
